Patent US9329192B2, “Polymer-coupled peptidases” (SENOVA GESELLSCHAFT FUR BIOWISSENSCHAFT UND TECHNIK MBH, priority 2010, dated 2016)

Tested on: heparin in combination with antithrombin of plasma
Test: Influence of heparin in plasma on amidolytic activity, chromogenic thrombin assay
Type: biochemical
Conditions: increasing concentrations of heparin in citrated plasma, substrate H-D-Chg-Ala-Arg-pNA
Protocol: The influence of heparin (Sigma, H-3393) on the amidolytic activity of PEG 5 kD-thrombin conjugate in plasma was compared with its influence on the amidolytic activity of unmodified thrombin using the chromogenic assay for quantitative determination of direct thrombin inhibitors (Example 5): 15 μl of a plasma sample (citrated plasma) were added to 50 μl chromogenic substrate (H-D-Chg-Ala-Arg-pNA, JenAffin GmbH, 3 mM in 0.05M Tris/HCl, 0.1M NaCl, pH 8.0 at 37° C.). Chromogenic reaction was started by addition of 100 μl PEG 5 kD-thrombin conjugate or thrombin, respectively. Increase in optical density (release of p-nitroaniline by cleavage of the chromogenic substrate) was recorded at 405 nm using the measurement device TC4+ (TECO GmbH).

Substance	influence of heparin on amidolytic activity
PEG 5 kD-thrombin conjugate: bovine factor IIa (thrombin) coupled with methoxy polyethylene glycol (PEG)-5,000 p-nitrophenyl carbonate	does not influence amidolytic activity
thrombin: bovine factor IIa (thrombin, EC 3.4.21.5, Kordia), unmodified	inhibit amidolytic activity
